Drawing on patent publication US20250270202A1, “SUBSTITUTED 4-AMINOISOINDOLINE COMPOUND, PREPARATION METHOD THEREFOR, PHARMACEUTICAL COMPOSITION THEREOF, AND USE THEREOF” (SHANGHAI INSTITUTE OF MATERIA MEDICA, CHINESE ACADEMY OF …, priority 2022, published 2025), this text covers IC50 for 24 compounds.

Holding throughout (assay type): cell-based
Test [1] has as its system MM.1S cells. Kind of test: Effect of the compound on MM.1S cell proliferation (MTS, 7 days). The settings on record: Homo sapiens, MM1.S, 168 h, 7 days, MTS, Table 1, read-out: MM.1S Cells Inhibition Activity IC50. As to the method: MM.1S cells were cultured in 1640 medium supplemented with 10% fetal bovine serum, then collected and diluted to the desired cell concentration after 7 days of treatment. A total of 180 μL of cell suspension was added to each well in a 96-well cell plate, ensuring 20,000 cells per well. For the control group, 20 μL of 0.2% DMSO was added to each well. Compounds were diluted in a 5-step gradient from a 10 mM stock solution, and 20 μL of each dilution was added to the compound-containing wells (with a final DMSO concentration of 0.2%). The cells were incubated in a 37° C., 5% CO2 incubator for 7 days. Afterward, 20 μL of the MTS reagent (Promega, G5430) was added to each well, followed by incubation for 3-4 hours in a 37° C., 5% CO2 incubator. Absorbance at 490 nm was measured using a microplate reader, with 690 nm absorbance as the background. The final raw data was calculated as OD490-OD690. The compound inhibition rate was calculated using the formula: […]
The IC50 for the compound's proliferative inhibition was fitted using GraphPad Prism 5.0. The experiment was repeated three times, and the average and standard deviation were calculated using three parallel experiments per trial.

The test system of test [2] is MV-4-11 cells. Kind of test: Inhibition of MV-4-11 cell proliferation (MTS, 7 days). The settings on record: Homo sapiens, MV4-11, 168 h, 7 days, MTS, Table 3, read-out: MV-4-11 Cells Inhibition Activity IC50. As to the method:
MV-4-11 cells were cultured in IMDM with 10% fetal bovine serum, collected, and diluted to the appropriate cell concentration for a 7-day treatment period. A 96-well plate was used, and 180 μL of cell suspension was added to each well, resulting in a cell count of 2,000 per well. For the control wells, 20 μL of DMSO at a final concentration of 0.2% was added. The compounds were diluted from a 10 mM stock solution in a five-fold gradient, and 20 μL was added to the compound wells (with a final DMSO concentration of 0.2%). The cells were incubated in a 37° C., 5% CO2 incubator for 7 days. After preparing the reaction solution using the MTS reagent kit (Promega, G5430), 20 μL was added to each well, and the cells were incubated in the incubator for 3-4 hours. The absorbance at 490 nm was measured using a microplate reader, with the absorbance at 690 nm as the background value. The final data was calculated as OD490-OD690. The inhibition rate of the compounds was calculated using the formula: […]
The IC50 values for proliferation inhibition were calculated using GraphPad Prism 5.0. The experiments were repeated three times, with three parallel experiments for each, and the mean and standard deviation were calculated.
The cell activity test results are shown in Table 3: A indicates IC50<1 μM, B indicates 1 µM≤IC50≤20 μM, and C indicates IC50>20 μM.

Test [3] relates to Mino cells. In words: Inhibition of cell proliferation of Mino cells (MTS, 3 days). The settings on record: Homo sapiens, MINO, 72 h, 3 days, MTS, Table 2, read-out: Mino Cells Inhibition Activity IC50. The procedure:
Mino cells were cultured with RPMI-1640 medium supplemented with 15% fetal bovine serum, and collected. The cell concentration was diluted according to a 3-day treatment period, and 90 μL of the cell suspension was added to each well of a 96-well plate, resulting in 8000 cells per well. For control wells, 10 μL of DMSO at a final concentration of 0.2% was added. The compounds were diluted in a 5-fold gradient from a 10 mM stock solution, and 10 μL of each compound solution was added to the experimental wells (with a final DMSO concentration of 0.2%). The cells were incubated in a 37° C., 5% CO2 incubator for 3 days. After preparing the reaction mixture using the MTS reagent kit (Promega, G5430), 20 μL was added to each well, and the cells were incubated for 3-4 hours at 37° C., 5% CO2.
The absorbance at 490 nm was read using a microplate reader, with the absorbance at 690 nm used as the background. The final raw data was calculated as OD490-OD690. The inhibition rate of the compounds was calculated using the formula: Inhibition rate=(OD DMSO−OD compound)/(OD DMSO−OD blank)×100%. The IC50 values for cell proliferation inhibition of the compounds were fitted using GraphPad Prism 5.0. The experiment was repeated three times, with the average and standard deviation calculated from three parallel experiments each time.

A word on the IC50: it is the concentration that gives 50% inhibition. Regarding `O=C1CCC(N2C(=O)c3cccc(NCc4cnc(-c5ccc(OC6CCOCC6)cc5)o4)c3C2=O)C(=O)N1` (stereo not drawn) [Example 53], the IC50 in test [1] was below 15 nM; in test [2], below 1000 nM; in test [3], below 60 nM.
In the case of `O=C1CCC(N2C(=O)c3cccc(NCc4cnc(-c5ccc(O[C@@H]6CCOC6)cc5)o4)c3C2=O)C(=O)N1` (stereo partly drawn) [Example 54], the IC50 in test [1] was below 15 nM; in test [2], below 1000 nM; in test [3], below 60 nM.
With `O=C1CCC(N2C(=O)c3cccc(NCc4cnc(-c5ccc(C(F)(F)F)cc5)o4)c3C2=O)C(=O)N1` (stereo not drawn) [Example 57], the IC50 is below 15 nM in test [1], below 1000 nM in test [2] and above 120 nM in test [3].
In the same order, the values of `O=C1CCC(N2C(=O)c3cccc(NCc4cnc(-c5cccc(C(F)(F)F)c5)o4)c3C2=O)C(=O)N1` (stereo not drawn) [Example 58] are 15 to 30 nM, below 1000 nM and above 120 nM.
As to `O=C1CCC(N2C(=O)c3cccc(NCc4cnc(-c5ccccc5C(F)(F)F)o4)c3C2=O)C(=O)N1` (stereo not drawn) [Example 59], the IC50 is 30 to 150 nM in test [1], 1000 to 20000 nM in test [2] and above 120 nM in test [3].
As to `O=C1CCC(N2C(=O)c3cccc(NCc4ncc(-c5ccc(C(F)(F)F)cc5)o4)c3C2=O)C(=O)N1` (stereo not drawn) [Example 60], the IC50 is 15 to 30 nM in test [1], 1000 to 20000 nM in test [2] and above 120 nM in test [3].
On to `O=C1CCC(N2C(=O)c3cccc(NCc4ncc(-c5cccc(C(F)(F)F)c5)o4)c3C2=O)C(=O)N1` (stereo not drawn) [Example 61], for which the IC50 is 30 to 150 nM in test [1], above 20000 nM in test [2] and above 120 nM in test [3].
In the same order, the values of `O=C1CCC(N2C(=O)c3cccc(NCc4ncc(-c5ccccc5C(F)(F)F)o4)c3C2=O)C(=O)N1` (stereo not drawn) [Example 62] are above 150 nM, 1000 to 20000 nM and above 120 nM.
For the compound `O=C1CCC(N2C(=O)c3cccc(NCc4cnc(-c5cccc(Cl)c5)o4)c3C2=O)C(=O)N1` (stereo not drawn) [Example 63, 4-(((2-(3-Chlorophenyl)oxazol-5-yl)methyl)amino)-2-(2,6-Dioxopiperidin-3-yl)isoindolin-1,3-dione], the IC50 was 15 to 30 nM in test [1], below 1000 nM in test [2] and above 120 nM in test [3].
On to `O=C1CCC(N2C(=O)c3cccc(NCc4ncc(-c5ccc(Cl)cc5)o4)c3C2=O)C(=O)N1` (stereo not drawn) [Example 64, 4-(((5-(4-Chlorophenyl)oxazol-2-yl)methyl)amino)-2-(2,6-Dioxopiperidin-3-yl)isoindolin-1,3-dione], for which the IC50 in test [1] is below 15 nM; in test [2] it was below 1000 nM; in test [3], above 120 nM.
In the same order, the values of `O=C1CCC(N2C(=O)c3cccc(NCc4ncc(-c5cccc(Cl)c5)o4)c3C2=O)C(=O)N1` (stereo not drawn) [Example 65, 4-(((5-(3-Chlorophenyl)oxazol-2-yl)methyl)amino)-2-(2,6-Dioxopiperidin-3-yl)isoindolin-1,3-dione] are 30 to 150 nM, below 1000 nM and above 120 nM.
Turning to `O=C1CCC(N2C(=O)c3cccc(NCc4ncc(-c5ccccc5Cl)o4)c3C2=O)C(=O)N1` (stereo not drawn) [Example 66, 4-(((5-(2-Chlorophenyl)oxazol-2-yl)methyl)amino)-2-(2,6-Dioxopiperidin-3-yl)isoindolin-1,3-dione], the IC50 in test [1] is 30 to 150 nM; in test [2], below 1000 nM; in test [3], above 120 nM.
In the case of `O=C1CCC(N2C(=O)c3cccc(NCc4cnc(-c5ccccc5Cl)s4)c3C2=O)C(=O)N1` (stereo not drawn) [Example 69, 4-(((2-(2-Chlorophenyl)thiazol-5-yl)methyl)amino)-2-(2,6-Dioxopiperidin-3-yl)isoindolin-1,3-dione], the IC50 was 30 to 150 nM in test [1], below 1000 nM in test [2] and above 120 nM in test [3].
With `O=C1CCC(N2C(=O)c3cccc(NCc4cnc(-c5ccccc5F)o4)c3C2=O)C(=O)N1` (stereo not drawn) [Example 71, 2-(2,6-Dioxopiperidin-3-yl)-4-(((2-(2-Fluorophenyl)oxazol-5-yl)methyl)amino)isoindolin-1,3-dione], the IC50 in test [1] was below 15 nM; in test [2], below 1000 nM; in test [3], below 60 nM.
Turning to `O=C1CCC(N2C(=O)c3cccc(NCc4ncc(-c5ccc(F)cc5)o4)c3C2=O)C(=O)N1` (stereo not drawn) [Example 72, 2-(2,6-Dioxopiperidin-3-yl)-4-(((5-(4-Fluorophenyl)oxazol-2-yl)methyl)amino)isoindolin-1,3-dione], the IC50 in test [1] is below 15 nM; in test [2], below 1000 nM; in test [3], above 120 nM.
`O=C1CCC(N2C(=O)c3cccc(NCc4cnc(-c5ccc(Cl)c(Cl)c5)o4)c3C2=O)C(=O)N1` (stereo not drawn) [Example 73, 4-(((2-(3,4-Dichlorophenyl)oxazol-5-yl)methyl)amino)-2-(2,6-Dioxopiperidin-3-yl)isoindolin-1,3-dione]: the IC50 was 15 to 30 nM in test [1], below 1000 nM in test [2] and above 120 nM in test [3].
In the same order, the values of `O=C1CCC(N2C(=O)c3cccc(NCc4cnc(-c5cccc(Cl)c5Cl)o4)c3C2=O)C(=O)N1` (stereo not drawn) [Example 74, 4-(((2-(2,3-Dichlorophenyl)oxazol-5-yl)methyl)amino)-2-(2,6-Dioxopiperidin-3-yl)isoindolin-1,3-dione] are below 15 nM, 1000 to 20000 nM and above 120 nM.
As for `O=C1CCC(N2C(=O)c3cccc(NCc4cnc(-c5ccc(Cl)cc5Cl)o4)c3C2=O)C(=O)N1` (stereo not drawn) [Example 76, 4-(((2-(2,4-Dichlorophenyl)oxazol-5-yl)methyl)amino)-2-(2,6-Dioxopiperidin-3-yl)isoindolin-1,3-dione], the IC50 in test [1] is 30 to 150 nM; in test [2], below 1000 nM; in test [3] it was above 120 nM.
Consider `O=C1CCC(N2C(=O)c3cccc(NCc4cnc(-c5cc(Cl)ccc5Cl)o4)c3C2=O)C(=O)N1` (stereo not drawn) [Example 77], for which the figures for the IC50 in test [1], in test [2] and in test [3] were 30 to 150 nM, 1000 to 20000 nM and above 120 nM, respectively.
Turning to `C[C@@H]1CN(Cc2ncc(CNc3cccc4c3C(=O)N(C3CCC(=O)NC3=O)C4=O)o2)C[C@H](C)O1` (stereo partly drawn) [Example 79, 4-(((2-(((2R,6S)-2,6-Dimethylmorpholino)methyl)oxazol-5-yl)methyl)amino)-2-(2,6-Dioxopiperidin-3-yl)isoindoline-1,3-dione], the IC50 is above 150 nM in test [1], below 1000 nM in test [2] and above 120 nM in test [3].
In the same order, the values of `O=C1CCC(N2C(=O)c3cccc(NCc4cnc(CN5CC(N6CCOCC6)C5)o4)c3C2=O)C(=O)N1` (stereo not drawn) [Example 80] are above 150 nM, below 1000 nM and above 120 nM.
Regarding `N#Cc1ccc(N2CCN(Cc3ncc(CNc4cccc5c4C(=O)N(C4CCC(=O)NC4=O)C5=O)o3)CC2)c(F)c1` (stereo not drawn) [Example 81], the IC50 in test [1] is 30 to 150 nM; in test [2], 1000 to 20000 nM; in test [3] it was above 120 nM.
As to `O=C1CCC(N2C(=O)c3cccc(NCc4cnc(CN5CCOCC5)o4)c3C2=O)C(=O)N1` (stereo not drawn) [Example 82], the IC50 in test [1] is above 150 nM; in test [2] it was below 1000 nM; in test [3], above 120 nM.
On to `O=C1CCC(N2C(=O)c3cccc(NCc4cnc(CN5CCC(N6CCOCC6)CC5)o4)c3C2=O)C(=O)N1` (stereo not drawn) [Example 87], for which the IC50 in test [1] was 30 to 150 nM; in test [2] it was above 20000 nM; in test [3], above 120 nM.
